Counter-ions that a name gives are not always drawn.
What was measured:
[1] = parameters: species or system piglets; settings: in vivo, po
Protocol: Bioavailability studies indicate that the microspherules pass through the stomach in an intact state and release the active ingredient only in the alkaline medium of the intestine. […] After 8-10 hours, the curve then falls off again and approaches zero. In case b), with the microspherules, the increase in active ingredient concentration begins after a delay of about 1-2 hours, reaches its maximum value after about 3-4 hours and, after about 10-12 hours, falls towards zero. […] This new method makes available a form of administration that is gentle on the stomach and that makes oral therapy even more efficient.

[2] = Stability of valnemulin in uncompressed feed; format: physicochemical

## C=C[C@]1(C)C[C@@H](OC(=O)CSC(C)(C)CNC(=O)[C@H](N)C(C)C)[C@]2(C)[C@H](C)CC[C@]3(CCC(=O)[C@H]32)[C@@H](C)[C@@H]1O [free valnemulin hydrochloride, valnemulin]
[1]
  time after which the plasma concentration curve falls towards zero: 8 to 10 h
  time at which plasma active ingredient concentration reaches its maximum value: 2 to 3 h
[2]
  loss of valnemulin in uncompressed feed: the same losses

— patent US8236851B2, “Microspherules containing a pleuromutilin derivative” (Novartis AG, priority 2001, dated 2012)
